Reference: patent publication EP4737445A1, “NOVEL SATURATED HETEROCYCLE-SUBSTITUTED HETEROARYL-CARBONOHYDRAZONOYL DICYANIDE COMPOUND AND USE THEREOF” (Korea Institute of Science and Technology, priority 2023, dated 2025)

What was measured:
CYP2D6 = target: T1, CYP2D6 (Homo sapiens, UniProt P10635); assay: CYP isoenzyme activity inhibition in human liver microsomes, CYP2D6; format: in vitro ADME; conditions: 10 µM compound; human liver microsomes 0.25 mg/mL; relative to control without compound
T1 construct: human liver microsomes (0.25 mg/mL); from tissue; host or cells: human liver microsomes
T1 sequence (P10635 whole entry): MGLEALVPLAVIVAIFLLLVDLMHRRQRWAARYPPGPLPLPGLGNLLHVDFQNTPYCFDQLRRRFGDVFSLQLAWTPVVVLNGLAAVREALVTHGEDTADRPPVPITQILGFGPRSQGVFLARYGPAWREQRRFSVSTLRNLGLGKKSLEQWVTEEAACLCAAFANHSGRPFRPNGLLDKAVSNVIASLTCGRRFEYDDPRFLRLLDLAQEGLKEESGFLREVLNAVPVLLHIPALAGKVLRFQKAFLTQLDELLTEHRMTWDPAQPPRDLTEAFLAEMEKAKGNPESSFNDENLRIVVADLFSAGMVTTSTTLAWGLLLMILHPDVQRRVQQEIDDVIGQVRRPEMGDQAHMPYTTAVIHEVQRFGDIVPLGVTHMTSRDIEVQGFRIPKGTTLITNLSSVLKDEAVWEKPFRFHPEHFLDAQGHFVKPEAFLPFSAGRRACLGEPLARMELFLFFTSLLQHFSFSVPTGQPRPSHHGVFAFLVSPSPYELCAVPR
Protocol: (§1) The CYP isoenzyme activity inhibitory effect by the compounds prepared according to Examples 1 to 46 was confirmed. Specifically, human liver microsomes (0.25 mg/mL), 0.1 M phosphate buffer solution (pH 7.4), a substrate drug cocktail of five drug metabolizing enzymes (Phenacetin 50 µM, Diclofenac 10 µM, S-mephenytoin 100 µM, Dextromethorphan 5 µM, and Midazolam 2.5 µM), and the compounds were added at concentrations of 0 or 10 µM, respectively, and pre-incubated at 37°C for 5 minutes, and then NADPH generation system solution was added and incubated at 37°C for an additional 15 minutes. Thereafter, an acetonitrile solution containing an internal standard (Terfenadine) was added to terminate the reaction, and after centrifugation for 5 minutes (14,000 rpm, 4°C), the supernatant was injected into an LC-MS/MS system to simultaneously analyze the metabolites of the substrate drugs, thereby evaluating the drug metabolizing enzyme inhibitory activity.
(§2) The metabolites of each CYP isoenzyme marker drug generated through the reaction were analyzed using a Shimadzu Nexera XR system and TSQ vantage (Thermo). A Kinetex C18 (2.1 × 100 mm, 2.6 µm, particle size; Phenomenex, USA) was used as the HPLC column, and (A) distilled water containing 0.1% formic acid and (B) acetonitrile containing 0.1% formic acid were used as mobile phases, and a gradient program as shown in Table 6 below was applied.
(§3) The generated metabolites were quantified using MRM (Multiple Reaction Monitoring) quantitative mode, and Xcalibur (version 1.6.1) was used for data analysis. To show the CYP isoenzyme activity inhibitory effect of the novel compounds prepared according to the Examples of the disclosure, the % activity of CYP isoenzymes relative to the control group without compound addition is shown in Table 6 below. Additionally, to confirm the difference in effect according to substituents, Comparative Compounds 1 and 5, which are two compounds that share a similar parent nucleus structure with Compounds 1 to 46 of the disclosure while Cy is substituted with aromatic heteroaryl instead of saturated heterocyclyl, were selected as comparative compounds and their activities are shown together.

CYP3A4 = target: T2, CYP3A4 (Homo sapiens, UniProt P08684); assay: CYP isoenzyme activity inhibition in human liver microsomes, CYP3A4; format: in vitro ADME; conditions: 10 µM compound; human liver microsomes 0.25 mg/mL; relative to control without compound
T2 construct: human liver microsomes (0.25 mg/mL); from tissue; host or cells: human liver microsomes
T2 sequence (P08684 whole entry): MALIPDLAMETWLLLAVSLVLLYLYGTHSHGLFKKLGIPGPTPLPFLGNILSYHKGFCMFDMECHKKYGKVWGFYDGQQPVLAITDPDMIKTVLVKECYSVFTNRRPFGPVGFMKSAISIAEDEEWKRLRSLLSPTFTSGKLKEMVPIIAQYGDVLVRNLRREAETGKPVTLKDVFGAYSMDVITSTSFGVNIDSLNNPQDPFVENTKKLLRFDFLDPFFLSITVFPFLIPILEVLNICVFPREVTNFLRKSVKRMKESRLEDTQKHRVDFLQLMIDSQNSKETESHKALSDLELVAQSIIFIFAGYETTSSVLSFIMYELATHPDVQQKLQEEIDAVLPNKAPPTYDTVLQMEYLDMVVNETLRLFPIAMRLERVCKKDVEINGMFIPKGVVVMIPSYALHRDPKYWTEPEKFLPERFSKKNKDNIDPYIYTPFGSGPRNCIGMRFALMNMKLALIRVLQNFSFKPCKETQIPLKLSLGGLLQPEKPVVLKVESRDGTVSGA
Protocol: as §1, §2, §3

[1] = Liver microsomal stability, human; format: in vitro ADME; conditions: 1 µM compound; 0.5 mg/mL microsomes; NADPH; 30 minutes at 37°C
Protocol: (§4) Liver microsomal stability by the compounds prepared according to Examples 1 to 46 was confirmed. Specifically, four types of liver microsomes (human, dog, rat, and mouse each at 0.5 mg/mL), 0.1 M phosphate buffer solution (pH 7.4), and the compounds at 1 µM concentration were added and pre-incubated at 37°C for 5 minutes, and then NADPH generation system solution was added and incubated at 37°C for an additional 30 minutes. Thereafter, an acetonitrile solution containing an internal standard (chloropropamide) was added to terminate the reaction, and after centrifugation for 5 minutes (14,000 rpm, 4°C), the supernatant was injected into an LC-MS/MS system to analyze the substrate drug, thereby evaluating the metabolic stability of 8 compounds.
(§5) The amount of remaining substrate through the reaction was analyzed using a Shimadzu Nexera XR system and TSQ vantage (Thermo). A Kinetex XB-C18 (2.1 × 100 mm, 2.6 µm, particle size; Phenomenex, USA) was used as the HPLC column, and (A) distilled water containing 0.1% formic acid and (B) acetonitrile containing 0.1% formic acid were used as mobile phases. Analyst software (version 1.6.3) and Xcalibur (version 1.6.1) were used for data analysis. The calculated results are shown in Table 5 below: Liver microsomal stability data of novel compounds from […] (human, rat, and mouse).

[2] = Liver microsomal stability, rat; format: in vitro ADME; conditions: 1 µM compound; 0.5 mg/mL microsomes; NADPH; 30 minutes at 37°C
Protocol: as §4, §5

Tau-BiFC cells = assay: Cell viability (stained nuclei count) in Tau-BiFC cells; format: cell-based; conditions: @10 µM; Tau-BiFC cell line; Forskolin-only group = 100%
Protocol: (§6) To screen for new tau aggregation inhibitors, a Tau-BiFC cell model that facilitates observation of tau oligomer formation in living cells was used. Tau-BiFC cells were dispensed into a 384-well plate, and the next day, the compounds prepared according to Examples 1 to 46 were treated at concentrations of 1, 3, and 10 µM, respectively, together with Forskolin (treatment concentration 30 µM), which is a compound that induces tau aggregation by activating the tau phosphorylation enzyme PKA. After 48 hours, nuclei within cells were stained using Hoechst (treatment concentration 2 µg/mL), and BiFC fluorescence intensity was automatically quantified using Operetta (Perkin Elmer) to count the stained nuclei in each well from the entire plate. The group treated only with Forskolin, which induces tau aggregation, was set as the reference point with 100% tau aggregation state, and the effect was confirmed by the formula "BiFC fluorescence intensity by the compounds synthesized according to the Examples of the disclosure/(fluorescence intensity of the control group treated only with Forskolin that induces tau aggregation - fluorescence intensity of the untreated control group) × 100". In addition, the degree of cytotoxicity induced by the newly synthesized compounds was also calculated using the formula "(number of stained nuclei in the compound-treated group/number of stained nuclei in the Forskolin-treated group) × 100", with the group treated only with Forskolin as the reference point at 100% viability. From the treatment results, substances that inhibit intracellular tau aggregation were identified through screening from a series of candidates based on the criteria of 70% or more tau aggregation inhibition and 100% cell viability at a compound treatment concentration of 10 µM.
(§7) To confirm the tau aggregation inhibitory effect according to the concentration of the compounds screened in Experimental Example 1, the screened compounds were treated to Tau-BiFC cells at concentrations of 0.03, 0.1, 0.3, 1, 3, 10, and 30 µM, respectively, together with Forskolin (treatment concentration 30 µM), which is a tau aggregation-inducing substance. After 48 hours, cell images were examined to analyze the tau aggregation reaction and degree of cytotoxicity. The IC50 and toxicity of the compounds were analyzed by nonlinear regression analysis using Prism software (GraphPad). The calculated results for representative compounds are shown in Table 3 below: Tau aggregation inhibitory effect and cell viability of novel compounds.

Tau = target: T3, Tau (Homo sapiens, UniProt P10636); assay: Tau aggregation inhibition in Tau-BiFC cell model (Forskolin-induced); format: cell-based
T3 construct: BiFC fluorescent-protein fragments (two complementary halves on two tau copies); expressed in transfected cells
T3 sequence (P10636 1-441 isoform P10636-8): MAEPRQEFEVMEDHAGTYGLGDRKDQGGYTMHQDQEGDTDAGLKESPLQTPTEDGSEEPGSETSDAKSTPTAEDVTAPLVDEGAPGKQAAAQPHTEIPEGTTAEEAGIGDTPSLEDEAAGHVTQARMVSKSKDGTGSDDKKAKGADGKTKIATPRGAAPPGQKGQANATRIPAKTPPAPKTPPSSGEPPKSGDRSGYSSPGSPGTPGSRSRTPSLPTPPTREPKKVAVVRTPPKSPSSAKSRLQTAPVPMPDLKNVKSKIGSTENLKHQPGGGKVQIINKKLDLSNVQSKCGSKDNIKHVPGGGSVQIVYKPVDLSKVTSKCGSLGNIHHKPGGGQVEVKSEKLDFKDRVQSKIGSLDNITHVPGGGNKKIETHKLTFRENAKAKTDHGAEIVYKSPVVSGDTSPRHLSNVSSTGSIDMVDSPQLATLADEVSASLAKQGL
Protocol: as §6, §7

SMILES | CYP2D6 (% activity) (CYP2D6) | CYP3A4 (% activity) (CYP3A4) | Human microsomes (% remaining) [1] | Rat microsomes (% remaining) [2] | Cell viability (% @10µM) (Tau-BiFC cells) | IC50 (Tau)
N#CC(C#N)=NNc1ccc2sc(N3CCOCC3)nc2c1 [Compound 1, (2-morpholinobenzo[d]thiazol-5-yl)carbonohydrazonoyl dicyanide] | > 100 % activity | 95.5 % activity | 91.2 % remaining | 2.1 % remaining | 100% | 0.012 µM
N#CC(C#N)=NNc1ccc2nc(N3CCOCC3)sc2c1 [Compound 2, (2-morpholinobenzo[d]thiazol-6-yl)carbonohydrazonoyl dicyanide] | > 100 % activity | 95.7 % activity | 74.3 % remaining | 55.2 % remaining | 100% | 0.004 µM
N#CC(C#N)=NNc1ccc2oc(N3CCOCC3)nc2c1 [Compound 3, (2-morpholinobenzo[d]oxazol-5-yl)carbonohydrazonoyl dicyanide] | > 100 % activity | > 100 % activity | 99.4 % remaining | 73.0 % remaining | 100% | 0.02 µM
N#CC(C#N)=NNc1ccc2nc(N3CCOCC3)oc2c1 [Compound 4, (2-morpholinobenzo[d]oxazol-6-yl)carbonohydrazonoyl dicyanide] | > 100 % activity | 94 % activity | 93.5 % remaining | 80.9 % remaining | 100% | 0.056 µM
Cn1c(N2CCOCC2)nc2ccc(NN=C(C#N)C#N)cc21 [Compound 5, (1-methyl-2-morpholino-1H-benzo[d]imidazol-6-yl)carbonohydrazonoyl dicyanide] | > 100 % activity | 86.1 % activity | 77.8 % remaining | 77.8 % remaining | 100% | 0.032 µM
Cn1c(N2CCOCC2)nc2cc(NN=C(C#N)C#N)ccc21 [Compound 6, (1-methyl-2-morpholino-1H-benzo[d]imidazol-5-yl)carbonohydrazonoyl dicyanide] | > 100 % activity | 96.7 % activity | 90 % remaining | 66.1 % remaining | 104% | 0.024 µM
CN1CCN(c2nc3ccc(NN=C(C#N)C#N)cc3s2)CC1 [Compound 8, (2-(4-methylpiperazin-1-yl)benzo[d]thiazol-6-yl)carbonohydrazonoyl dicyanide] | > 100 % activity | 95 % activity | 83.9 % remaining | 76.6 % remaining | 101% | 0.032 µM
COC1CCN(c2nc3ccc(NN=C(C#N)C#N)cc3s2)CC1 [Compound 9, (2-(4-methoxypiperidin-1-yl)benzo[d]thiazol-6-yl)carbonohydrazonoyl dicyanide] | > 100 % activity | 66.1 % activity | 5.0 % remaining | 17.7 % remaining | 100% | 0.036 µM
CC1CN(c2nc3ccc(NN=C(C#N)C#N)cc3s2)CC(C)O1 (stereo not shown) [Compound 10, (2-(2,6-dimethylmorpholino)benzo[d]thiazol-6-yl)carbonohydrazonoyl dicyanide] | 93.8 % activity | 74.5 % activity | 69.4 % remaining | 84.8 % remaining | 109% | 0.024 µM
CN1CCN(c2nc3ccc(NN=C(C#N)C#N)cc3o2)CC1 [Compound 14, (2-(4-methylpiperazin-1-yl)benzo[d]oxazol-6-yl)carbonohydrazonoyl dicyanide] | > 100 % activity | 96.8 % activity | – | – | 100% | 0.048 µM
N#CC(C#N)=NNc1ccc2nc(N3CCNCC3)sc2c1 [Compound 24, (2-(piperazin-1-yl)benzo[d]thiazol-6-yl)carbonohydrazonoyl dicyanide] | 74.2 % activity | 74.7 % activity | – | – | 95% | 0.168 µM
N#CC(C#N)=NNc1ccc2nc(N3CCNCC3)oc2c1 [Compound 25, (2-(piperazin-1-yl)benzo[d]oxazol-6-yl)carbonohydrazonoyl dicyanide] | 93.5 % activity | 91.5 % activity | – | – | 94% | 0.036 µM
CC(C)N1CCN(c2nc3ccc(NN=C(C#N)C#N)cc3s2)CC1 [Compound 27, (2-(4-isopropylpiperazin-1-yl)benzo[d]thiazol-6-yl)carbonohydrazonoyl dicyanide] | 92.3 % activity | 59.8 % activity | – | – | 99% | 0.044 µM
